Assay results taken from ChEMBL document CHEMBL5634104, “Identification of 1,3,4-oxadiazolyl-containing β-carboline derivatives as novel α-glucosidase inhibitors with antidiabetic activity” (Eur J Med Chem, 2023).
Calls of active or inactive are those of the source. No cut-off for these calls is given here.

Key:
Mus musculus [1] = experiment: Antihyperlipidemic activity against streptozocin-induced C57/6J mouse assessed as decrease in triglyceride level at 50 mg/kg/day, po administered for 4 weeks by automatic biochemical analyzer; type: functional, organism-based
Alpha-glucosidase [2] = target: T1, Alpha-glucosidase (Saccharomyces cerevisiae S288c, UniProt P53341+P38158+P07265); experiment: Noncompetitive inhibition of Saccharomyces cerevisiae Alpha-glucosidase assessed as decrease in Vmax with constant Km using p-NPG as substrate by Lineweaver-Burk plot analysis; type: protein assay
Mus musculus [3] = experiment: Anti-diabetic activity against streptozocin-induced C57/6J mouse diabetes model assessed as decrease in blood glucose level at 50 mg/kg/day, po administered for 25 days in presence of sucrose by OGTT assay; type: functional, organism-based; settings: time 25.0 day
Mus musculus [4] = experiment: Antihyperlipidemic activity against streptozocin-induced C57/6J mouse assessed as decrease in total cholesterol level at 50 mg/kg/day, po administered for 4 weeks by automatic biochemical analyzer; type: functional, organism-based
L02 = experiment: Cytotoxicity against human L02 cells upto 32 uM; type: toxicity, cell-based; settings: l02, 32 µM
Alpha-glucosidase [5] = target: T1, Alpha-glucosidase; experiment: Inhibition of Saccharomyces cerevisiae Alpha-glucosidase using p-NPG as substrate and measured after 10 mins; type: protein assay
Mus musculus [6] = experiment: Anti-diabetic activity against streptozocin-induced C57/6J mouse diabetes model assessed as change in fasting blood glucose at 50 mg/kg/day, po and measured after 1 week; type: functional, organism-based; settings: time 1.0 weeks
Mus musculus [7] = experiment: Anti-diabetic activity against streptozocin-induced C57/6J mouse diabetes model assessed as decrease in fasting blood glucose at 50 mg/kg/day, po and measured from 2 to 4 weeks; type: functional, organism-based; settings: time 2-4 weeks
Mus musculus [8] = experiment: Anti-diabetic activity against streptozocin-induced C57/6J mouse diabetes model assessed as decrease in blood glucose level at 100 mg/kg/day, po administered for 25 days in presence of sucrose by OGTT assay; type: functional, organism-based; settings: time 25.0 day
Mus musculus [9] = experiment: Antihyperlipidemic activity against streptozocin-induced C57/6J mouse assessed as decrease in total cholesterol level at 100 mg/kg/day, po administered for 4 weeks by automatic biochemical analyzer; type: functional, organism-based
Mus musculus [10] = experiment: Anti-diabetic activity against streptozocin-induced C57/6J mouse diabetes model assessed as change in fasting blood glucose at 100 mg/kg/day, po and measured after 1 week; type: functional, organism-based; settings: time 1.0 weeks
Mus musculus [11] = experiment: Antihyperlipidemic activity against streptozocin-induced C57/6J mouse assessed as decrease in triglyceride level at 100 mg/kg/day, po administered for 4 weeks by automatic biochemical analyzer; type: functional, organism-based
Mus musculus [12] = experiment: Anti-diabetic activity against streptozocin-induced C57/6J mouse diabetes model assessed as decrease in fasting blood glucose at 100 mg/kg/day, po and measured from 2 to 4 weeks; type: functional, organism-based; settings: time 2-4 weeks

With `c1ccc(-c2ccccc2CSc2nnc(-c3cc4c([nH]c5ccccc54)c(-c4ccccc4)n3)o2)cc1` the Activity (Mus musculus [1]) was “Active”, the Ki (Alpha-glucosidase [2]) was 1.22 µM and the Activity (Mus musculus [3]) was “Active”. The Activity (Mus musculus [4]) was “Active”, the Activity (L02) was “Non-Toxic” and the IC50 (Alpha-glucosidase [5]) was 3.07 µM. The Activity (Mus musculus [6]) was “inactive” and the Activity (Mus musculus [7]) was “Active”.

In the case of `C[C@H]1O[C@H](O[C@H]2[C@H](O)[C@@H](O)[C@@H](O[C@H]3[C@H](O)[C@@H](O)C(O)O[C@@H]3CO)O[C@@H]2CO)[C@H](O)[C@@H](O)[C@@H]1N[C@H]1C=C(CO)[C@@H](O)[C@H](O)[C@H]1O` (some centres undefined), the Activity (Mus musculus [8]) is reported as “Active”, the Activity (Mus musculus [9]) is reported as “Active” and the Activity (Mus musculus [10]) is reported as “inactive”. The Activity (Mus musculus [11]) was “Active” and the Activity (Mus musculus [12]) was “Active”.

For `Cc1cccc(CSc2nnc(-c3cc4c([nH]c5ccccc54)c(-c4ccccc4)n3)o2)c1`, the IC50 (Alpha-glucosidase [5]) was 10.4 µM.

`O=[N+]([O-])c1ccc(CSc2nnc(-c3cc4c([nH]c5ccccc54)c(-c4ccccc4)n3)o2)cc1` gave a Ki (Alpha-glucosidase [2]) of 2.86 µM and an IC50 (Alpha-glucosidase [5]) of 3.1 µM.

Compound `c1ccc(-c2cccc(CSc3nnc(-c4cc5c([nH]c6ccccc65)c(-c5ccccc5)n4)o3)c2)cc1` has an IC50 (Alpha-glucosidase [5]) of 3.39 µM.

Compound `CS(=O)(=O)c1ccc(CSc2nnc(-c3cc4c([nH]c5ccccc54)c(-c4ccccc4)n3)o2)cc1` has an IC50 (Alpha-glucosidase [5]) of 6.15 µM.

In the case of `CC(C)(C)c1ccc(CSc2nnc(-c3cc4c([nH]c5ccccc54)c(-c4ccccc4)n3)o2)cc1`, the IC50 (Alpha-glucosidase [5]) is reported as 4.95 µM.

For `Cc1ccc(CSc2nnc(-c3cc4c([nH]c5ccccc54)c(-c4ccccc4)n3)o2)cc1`, the IC50 (Alpha-glucosidase [5]) was 11.86 µM.

With `Fc1cccc(CSc2nnc(-c3cc4c([nH]c5ccccc54)c(-c4ccccc4)n3)o2)c1` the IC50 (Alpha-glucosidase [5]) was 15.41 µM.

With `Clc1ccccc1CSc1nnc(-c2cc3c([nH]c4ccccc43)c(-c3ccccc3)n2)o1` the IC50 (Alpha-glucosidase [5]) was 5.46 µM.

In the case of `O=[N+]([O-])c1ccccc1CSc1nnc(-c2cc3c([nH]c4ccccc43)c(-c3ccccc3)n2)o1`, the IC50 (Alpha-glucosidase [5]) is reported as 9.57 µM.

`c1ccc(-c2ccc(CSc3nnc(-c4cc5c([nH]c6ccccc65)c(-c5ccccc5)n4)o3)cc2)cc1` gave an IC50 (Alpha-glucosidase [5]) of 4.32 µM.

Compound `Clc1cccc(CSc2nnc(-c3cc4c([nH]c5ccccc54)c(-c4ccccc4)n3)o2)c1` has an IC50 (Alpha-glucosidase [5]) of 12.71 µM.

`Fc1ccc(CSc2nnc(-c3cc4c([nH]c5ccccc54)c(-c4ccccc4)n3)o2)cc1` was tested, and the IC50 (Alpha-glucosidase [5]) was 14.73 µM.

`Brc1ccc(CSc2nnc(-c3cc4c([nH]c5ccccc54)c(-c4ccccc4)n3)o2)cc1` gave an IC50 (Alpha-glucosidase [5]) of 5.42 µM.

Compound `N#Cc1ccccc1CSc1nnc(-c2cc3c([nH]c4ccccc43)c(-c3ccccc3)n2)o1` has an IC50 (Alpha-glucosidase [5]) of 10.57 µM.

`FC(F)(F)c1ccccc1CSc1nnc(-c2cc3c([nH]c4ccccc43)c(-c3ccccc3)n2)o1` was tested, and the IC50 (Alpha-glucosidase [5]) was 10.59 µM.

`FC(F)(F)Oc1ccc(CSc2nnc(-c3cc4c([nH]c5ccccc54)c(-c4ccccc4)n3)o2)cc1` showed an IC50 (Alpha-glucosidase [5]) of 6.44 µM.

`FC(F)(F)Oc1ccccc1CSc1nnc(-c2cc3c([nH]c4ccccc43)c(-c3ccccc3)n2)o1` was tested, and the IC50 (Alpha-glucosidase [5]) was 10.64 µM.

With `N#Cc1cccc(CSc2nnc(-c3cc4c([nH]c5ccccc54)c(-c4ccccc4)n3)o2)c1` the IC50 (Alpha-glucosidase [5]) was 10.42 µM.

For `Clc1ccc(CSc2nnc(-c3cc4c([nH]c5ccccc54)c(-c4ccccc4)n3)o2)cc1Cl`, the IC50 (Alpha-glucosidase [5]) was 9.66 µM.

In the case of `N#Cc1ccc(CSc2nnc(-c3cc4c([nH]c5ccccc54)c(-c4ccccc4)n3)o2)cc1`, the IC50 (Alpha-glucosidase [5]) is reported as 10.36 µM.

With `Fc1ccccc1CSc1nnc(-c2cc3c([nH]c4ccccc43)c(-c3ccccc3)n2)o1` the IC50 (Alpha-glucosidase [5]) was 14.75 µM.

For `FC(F)(F)c1ccc(CSc2nnc(-c3cc4c([nH]c5ccccc54)c(-c4ccccc4)n3)o2)cc1`, the IC50 (Alpha-glucosidase [5]) was 8.48 µM.

`FC(F)(F)Oc1cccc(CSc2nnc(-c3cc4c([nH]c5ccccc54)c(-c4ccccc4)n3)o2)c1` was tested, and the IC50 (Alpha-glucosidase [5]) was 10.93 µM.

With `O=[N+]([O-])c1cccc(CSc2nnc(-c3cc4c([nH]c5ccccc54)c(-c4ccccc4)n3)o2)c1` the IC50 (Alpha-glucosidase [5]) was 5.76 µM.

`Clc1ccc(CSc2nnc(-c3cc4c([nH]c5ccccc54)c(-c4ccccc4)n3)o2)cc1` showed an IC50 (Alpha-glucosidase [5]) of 5.31 µM.

`Brc1ccccc1CSc1nnc(-c2cc3c([nH]c4ccccc43)c(-c3ccccc3)n2)o1` gave an IC50 (Alpha-glucosidase [5]) of 6.97 µM.

Work on `Fc1ccc(CSc2nnc(-c3cc4c([nH]c5ccccc54)c(-c4ccccc4)n3)o2)cc1F` yielded an IC50 (Alpha-glucosidase [5]) of 9.12 µM.

`COC(=O)c1cccc(CSc2nnc(-c3cc4c([nH]c5ccccc54)c(-c4ccccc4)n3)o2)c1` was tested, and the IC50 (Alpha-glucosidase [5]) was 4.93 µM.

Compound `Cc1ccccc1CSc1nnc(-c2cc3c([nH]c4ccccc43)c(-c3ccccc3)n2)o1` has an IC50 (Alpha-glucosidase [5]) of 3.33 µM.

Work on `c1ccc(CSc2nnc(-c3cc4c([nH]c5ccccc54)c(-c4ccccc4)n3)o2)cc1` yielded a Ki (Alpha-glucosidase [2]) of 1.81 µM and an IC50 (Alpha-glucosidase [5]) of 15.49 µM.

`Brc1cccc(CSc2nnc(-c3cc4c([nH]c5ccccc54)c(-c4ccccc4)n3)o2)c1` gave an IC50 (Alpha-glucosidase [5]) of 8.47 µM.

In the case of `COC(=O)c1ccccc1CSc1nnc(-c2cc3c([nH]c4ccccc43)c(-c3ccccc3)n2)o1`, the IC50 (Alpha-glucosidase [5]) is reported as 5.58 µM.

`FC(F)(F)c1cccc(CSc2nnc(-c3cc4c([nH]c5ccccc54)c(-c4ccccc4)n3)o2)c1` gave an IC50 (Alpha-glucosidase [5]) of 12.25 µM.

For `COC(=O)c1ccc(CSc2nnc(-c3cc4c([nH]c5ccccc54)c(-c4ccccc4)n3)o2)cc1`, the IC50 (Alpha-glucosidase [5]) was 4.6 µM.
